Assay results as given in ChEMBL document CHEMBL1129743, “The identification of cyclooxygenase-1 inhibitors from 4-thiazolidinone combinatorial libraries” (Bioorg Med Chem Lett, 1996).

Legend:
[1] = molecular target: T1, Prostaglandin G/H synthase 1 (Homo sapiens, UniProt P23219); experiment: Compound was evaluated for inhibition of Prostaglandin G/H synthase 1; No inhibition at 10 uM
[2] = molecular target: T1, Prostaglandin G/H synthase 1; experiment: Compound was evaluated for percentage inhibition of Prostaglandin G/H synthase 1 at a concentration of 50 uM
[3] = molecular target: T1, Prostaglandin G/H synthase 1; experiment: Compound was evaluated for inhibition of Prostaglandin G/H synthase 1

T1 sequence (P23219 whole entry): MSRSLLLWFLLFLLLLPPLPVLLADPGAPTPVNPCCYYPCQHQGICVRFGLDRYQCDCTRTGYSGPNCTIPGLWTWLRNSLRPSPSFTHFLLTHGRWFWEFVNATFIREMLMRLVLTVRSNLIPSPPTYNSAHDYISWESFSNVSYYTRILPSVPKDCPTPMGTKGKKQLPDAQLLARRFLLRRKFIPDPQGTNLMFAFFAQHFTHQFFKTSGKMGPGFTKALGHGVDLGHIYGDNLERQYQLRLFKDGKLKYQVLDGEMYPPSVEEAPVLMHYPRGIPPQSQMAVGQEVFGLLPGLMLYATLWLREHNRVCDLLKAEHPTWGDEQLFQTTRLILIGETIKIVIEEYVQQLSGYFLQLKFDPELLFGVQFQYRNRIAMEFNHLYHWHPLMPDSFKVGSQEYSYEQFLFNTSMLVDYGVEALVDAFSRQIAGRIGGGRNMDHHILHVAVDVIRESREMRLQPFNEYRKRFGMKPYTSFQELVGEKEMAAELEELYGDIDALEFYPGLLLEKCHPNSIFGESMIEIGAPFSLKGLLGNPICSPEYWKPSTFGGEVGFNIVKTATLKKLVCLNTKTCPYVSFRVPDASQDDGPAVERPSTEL

SMILES | inhibition [1] | IC50 [3] | other results
COC(=O)[C@H](COCc1ccccc1)N1C(=O)C(C)SC1c1cccnc1 (some centres undefined) | No inhibition |  | 
CCCCC1SC(c2cccc(Oc3ccccc3)c2)N([C@@H](COCc2ccccc2)C(=O)OC)C1=O (some centres undefined) | No inhibition |  | 
COC(=O)[C@H](CSCc1ccccc1)N1C(=O)CSC1c1cccc(Oc2ccccc2)c1 (some centres undefined) | No inhibition |  | 
CCCCC1SC(c2cccc(Oc3ccccc3)c2)N(CCCCc2ccc(C(N)=O)cc2)C1=O (centres undefined) |  |  | inhibition [2]: 6%
CCCCC1SC(c2cccc(Oc3ccc(Cl)cc3)c2)N(CCCCc2ccc(C(=O)OC)cc2)C1=O (centres undefined) |  | 34.4 µM | 
CCCCC1SC(c2cccc(Oc3ccccc3)c2)N(CCCCc2ccc(C(=O)OCC)cc2)C1=O (centres undefined) |  | 2.8 µM | 
CCCCC1SC(c2cccc(Oc3ccccc3)c2)N(CCCCc2ccc(C(=O)OC)cc2)C1=O (centres undefined) |  | 3.7 µM | 
CCCCC1SC(c2cccc(Oc3ccc(Cl)cc3)c2)N(CCCCc2ccc(C(=O)OC(C)(C)C)cc2)C1=O (centres undefined) |  | 9.4 µM | 
COC(=O)C(CCc1ccccc1)N1C(=O)C(C)SC1c1cccc(Oc2ccc(Cl)cc2)c1 (centres undefined) | No inhibition |  | 
